Key:
[1] = test system: TAXOL sensitive cancer cell lines; assay: TAXOL growth inhibition (GI50), mean of TAXOL sensitive cell lines; type: cell-based; conditions: Homo sapiens; mean of the nine TAXOL sensitive cell lines of Table C; read-out: Log GI 50 for TAXOL (Mean) (converted)
Protocol: (§1) One group of nine cell lines was determined to be sensitive to TAXOL (Table C), the other group of nine cell lines was determined to be resistant to TAXOL (Table B). Sensitivity to TAXOL was based on known GI50 values for these cells, which for this study was defined as the concentration of TAXOL required to inhibit growth of the cell line by 50%. More precisely, the quantity used in the calculation is the potency measure −log {GI50}. Pooled RNA from TAXOL sensitive cancer cell lines was used as tester against driver RNA pooled from TAXOL resistant cancer cell lines. The results of this subtractive library are shown in SEQ ID NOS: 1-127, SEQ ID NOS: 398-517 and SEQ ID NOS: 746-841. Pooled RNA from TAXOL resistant cancer cell lines was used as tester against driver RNA pooled from TAXOL sensitive cancer cell lines. The results of this subtractive library are shown in SEQ ID NOS: 128-397, SEQ ID NOS: 518-745 and SEQ ID NOS: 842-1046.

[2] = test system: OVCAR-3; conditions: OVCAR-3, ovarian, TAXOL sensitive cell line; cited from earlier work
[3] = test system: MCF-7/AdrRes; conditions: breast, TAXOL resistant cell line; cited from earlier work
[4] = test system: MCF-7; conditions: MCF-7, breast, TAXOL sensitive cell line; cited from earlier work
[5] = test system: NCI-H460; conditions: NCI-H460, non-small cell lung carcinoma, TAXOL sensitive cell line; cited from earlier work
[6] = test system: MDA-MB-435; conditions: MDA-MB-435, breast, TAXOL sensitive cell line; cited from earlier work
[7] = test system: EKVX; conditions: non-small cell lung carcinoma, TAXOL resistant cell line; cited from earlier work
[8] = test system: ACHN; conditions: renal, TAXOL resistant cell line; cited from earlier work
[9] = test system: SK-MEL-28; conditions: SK-MEL-28, melanoma, TAXOL resistant cell line; cited from earlier work
[10] = test system: SK-MEL-5; conditions: SK-MEL-5, melanoma, TAXOL sensitive cell line; cited from earlier work
[11] = test system: SK-MEL-2; conditions: SK-MEL-2, melanoma, TAXOL sensitive cell line; cited from earlier work
[12] = test system: HCT-15; conditions: HCT-15, colon, TAXOL resistant cell line; cited from earlier work
[13] = test system: T-47D; conditions: breast, TAXOL resistant cell line; cited from earlier work
[14] = test system: OVCAR-4; conditions: OVCAR-4, ovarian, TAXOL resistant cell line; cited from earlier work
[15] = test system: HOP-92; conditions: HOP-92, non-small cell lung carcinoma, TAXOL resistant cell line; cited from earlier work
[16] = test system: HT-29; conditions: HT-29, colon, TAXOL sensitive cell line; cited from earlier work
[17] = test system: TAXOL resistant cancer cell lines; assay: TAXOL growth inhibition (GI50), mean of TAXOL resistant cell lines; type: cell-based, human; conditions: mean of the nine TAXOL resistant cell lines of Table B
Protocol: as §1

[18] = test system: NCI-H522; conditions: NCI-H522, non-small cell lung carcinoma, TAXOL sensitive cell line; cited from earlier work
[19] = test system: SN12C; conditions: renal, TAXOL sensitive cell line; cited from earlier work
[20] = test system: MALME-3M; conditions: melanoma, TAXOL resistant cell line; cited from earlier work
[21] = test system: tumor; conditions: animal models; cited from earlier work

Structure (SMILES): CC(=O)O[C@H]1C(=O)[C@@]2(C)[C@H]([C@H](OC(=O)c3ccccc3)[C@]3(O)C[C@H](OC(=O)[C@H](O)[C@@H](NC(=O)c4ccccc4)c4ccccc4)C(C)=C1C3(C)C)[C@]1(OC(C)=O)CO[C@@H]1C[C@@H]2O [TAXOL]
- GI50 [1]: 3.16 nM
- Log GI 50 for TAXOL [2]: −8.5
- Log GI 50 for TAXOL [3]: −5.5
- Log GI 50 for TAXOL [4]: −8.5
- Log GI 50 for TAXOL [5]: −8.5
- Log GI 50 for TAXOL [6]: −8.6
- Log GI 50 for TAXOL [7]: −6.6
- Log GI 50 for TAXOL [8]: −5.8
- Log GI 50 for TAXOL [9]: −7.1
- Log GI 50 for TAXOL [10]: −8.4
- Log GI 50 for TAXOL [11]: −8.3
- Log GI 50 for TAXOL [12]: −6.7
- Log GI 50 for TAXOL [13]: −6.9
- Log GI 50 for TAXOL [14]: −6.3
- Log GI 50 for TAXOL [15]: −7.2
- Log GI 50 for TAXOL [16]: −8.6
- Log GI 50 for TAXOL (Mean) [17]: −6.5
- Log GI 50 for TAXOL [18]: −8.5
- Log GI 50 for TAXOL [19]: −8.5
- Log GI 50 for TAXOL [20]: −6.8

Structure (SMILES): CC(=O)O[C@@]12CO[C@@H]1C[C@H](O)[C@@]1(C)C(=O)[C@H](O)C3=C(C)[C@@H](OC(=O)[C@H](O)[C@@H](NC(=O)OC(C)(C)C)c4ccccc4)C[C@@](O)([C@@H](OC(=O)c4ccccc4)[C@H]21)C3(C)C [Taxotere, docetaxel]
- anti-tumor activity [21]: good anti-tumor activity
